Laboratory results taken from the supplement of paper PMC10307832.

How the values were obtained:
Experiment in all cases: relative viability (nuclei count vs DMSO), 5 days (fraction); higher = more cells survive
[1] = compound: COC1=C(C=C(C=C1)C2=CC3=NC=CN3C(=N2)NC4=C(C=CC=N4)C(=O)N)OC [BAY61-3606] + CC(=O)c1c(C)c2cnc(Nc3ccc(N4CCNCC4)cn3)nc2n(C2CCCC2)c1=O [Palbociclib] (partner 0.5 µM)
Outline: (§1)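 One day after seeding in 1536-well plates, lung cancer cell lines were dosed by pin tool. Dosing was either single-drug or a fixed anchor-drug dose plus five library-drug doses (not always all listed) in √10 steps. After 5 days, nuclei were stained in one fix-and-stain step and counted on 4× images, and relative viability is the nuclei count of treated wells over that of vehicle wells, given as the median of duplicate plates.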

[2] = compound: COc1cccc2c1C(=O)c1c(O)c3c(c(O)c1C2=O)C[C@@](O)(C(=O)CO)C[C@@H]3O[C@H]1C[C@H](N)[C@H](O)[C@H](C)O1 [Doxorubicin] + CC(=O)c1c(C)c2cnc(Nc3ccc(N4CCNCC4)cn3)nc2n(C2CCCC2)c1=O [Palbociclib] (partner 0.5 µM)
Outline: as §1

[3] = compound: COC1=C(C=C(C=C1)C2=CC3=NC=CN3C(=N2)NC4=C(C=CC=N4)C(=O)N)OC [BAY61-3606] + NC(=O)Nc1cc(-c2cccc(F)c2)sc1C(=O)N[C@H]1CCCNC1 [AZD7762] (partner 0.2 µM)
Outline: as §1

[4] = compound: COC1=C(C=C(C=C1)C2=CC3=NC=CN3C(=N2)NC4=C(C=CC=N4)C(=O)N)OC [BAY61-3606] + CCNC(=O)c1noc(-c2cc(C(C)C)c(O)cc2O)c1-c1ccc(CN2CCOCC2)cc1 [Luminespib] (partner 0.01 µM)
Outline: as §1

Cell Line | relative viability ([1]; first compound 0.02 µM) | relative viability ([1]; first compound 0.06325 µM) | relative viability ([1]; first compound 0.2 µM) | relative viability ([1]; first compound 0.6325 µM) | relative viability ([1]; first compound 2 µM) | relative viability ([2]; first compound 0.001 µM) | relative viability ([2]; first compound 0.003162 µM) | relative viability ([2]; first compound 0.01 µM) | relative viability ([2]; first compound 0.03162 µM) | relative viability ([2]; first compound 0.1 µM) | relative viability ([3]; first compound 0.02 µM) | relative viability ([3]; first compound 0.06325 µM) | relative viability ([3]; first compound 0.2 µM) | relative viability ([3]; first compound 0.6325 µM) | relative viability ([3]; first compound 2 µM) | relative viability ([4]; first compound 0.02 µM) | relative viability ([4]; first compound 0.06325 µM) | relative viability ([4]; first compound 0.2 µM) | relative viability ([4]; first compound 0.6325 µM) | relative viability ([4]; first compound 2 µM)
HCC-78 | 0.438 | 0.431 | 0.486 | 0.44 | 0.522 | 0.46 | 0.526 | 0.449 | 0.488 | 0.453 | 0.645 | 0.51 | 0.652 | 0.487 | 0.674 |  |  |  |  | 
HOP-62 |  | 0.465 | 0.459 | 0.348 | 0.346 | 0.421 | 0.444 | 0.494 | 0.434 | 0.486 |  | 0.643 | 0.517 | 0.748 | 0.531 | 0.919 | 1.07 | 0.83 | 0.933 | 0.651
NCI-H1623 |  |  |  |  |  |  |  |  |  |  |  |  |  |  |  | 0.604 | 0.439 | 0.422 | 0.607 | 0.52
NCI-H3122 | 0.159 | 0.185 | 0.226 | 0.231 | 0.189 | 0.182 | 0.189 | 0.187 | 0.14 | 0.188 | 0.989 | 0.968 | 0.962 | 1.02 | 0.945 | 0.121 | 0.0764 | 0.0868 | 0.099 | 0.0933
NCI-H1666 | 0.657 | 0.745 | 0.731 | 0.634 | 0.688 |  | 0.646 | 0.626 | 0.565 | 0.568 | 0.917 | 0.895 | 0.852 | 0.834 | 0.82 | 1.12 | 0.998 | 1.13 | 1.08 | 1.05
HARA | 0.262 | 0.23 | 0.268 | 0.243 | 0.306 | 0.234 | 0.256 | 0.259 | 0.236 | 0.263 | 0.286 | 0.291 | 0.452 | 0.303 | 0.3 | 0.672 | 0.462 | 0.681 | 0.682 | 0.352
NCI-H1651 | 0.558 | 0.511 | 0.513 | 0.573 | 0.523 | 0.517 | 0.546 | 0.461 | 0.449 | 0.483 | 0.517 | 0.454 | 0.463 | 0.52 | 0.498 | 1.03 | 0.869 | 0.664 | 1.13 | 0.603
NCI-H1395 | 0.702 | 0.598 | 0.608 | 0.682 | 0.59 | 0.579 | 0.618 | 0.663 | 0.671 | 0.575 | 0.393 | 0.411 | 0.424 | 0.42 | 0.393 | 0.849 | 0.595 | 0.733 | 0.568 | 0.546
SK-LU-1 | 0.356 | 0.384 | 0.35 | 0.357 | 0.289 | 0.351 | 0.414 | 0.351 | 0.333 | 0.355 |  |  |  |  |  | 0.182 | 0.224 | 0.188 | 0.2 | 0.173
LXF-289 | 0.533 | 0.587 | 0.62 | 0.677 | 0.665 | 0.589 | 0.625 | 0.549 | 0.634 | 0.607 | 1.13 | 1.1 | 1.04 | 1.24 | 1.24 | 0.772 | 0.578 | 0.648 | 0.551 | 0.561
NCI-H1437 | 0.338 | 0.28 | 0.312 | 0.387 | 0.315 | 0.315 | 0.327 | 0.294 | 0.295 | 0.26 | 1.14 | 1.08 | 1.17 | 1.21 | 1.12 | 1.14 | 1.15 | 1 | 1.19 | 1.04
HCC-827 | 0.514 | 0.456 | 0.467 | 0.484 | 0.234 | 0.465 | 0.458 | 0.484 | 0.465 | 0.593 | 0.219 | 0.176 | 0.211 | 0.215 | 0.207 | 0.492 | 0.587 | 0.572 | 0.743 | 0.31
NCI-H1650 | 0.316 | 0.291 | 0.37 | 0.413 | 0.298 | 0.237 | 0.317 | 0.282 | 0.173 | 0.145 |  |  |  |  |  | 0.182 | 0.184 | 0.191 | 0.203 | 0.208
HCC-15 | 0.803 | 0.673 | 0.708 | 0.768 | 0.601 | 0.743 | 0.733 | 0.522 | 0.681 | 0.488 | 1.31 | 0.919 | 1.29 | 1.25 | 1.16 | 0.412 | 0.302 | 0.303 | 0.263 | 0.377
EKVX | 0.405 | 0.45 | 0.385 | 0.496 | 0.45 | 0.794 | 0.312 | 0.342 | 0.31 | 0.374 | 0.742 | 0.673 | 0.644 | 0.753 | 0.665 | 0.999 | 0.927 | 0.844 | 0.897 | 0.843
NCI-H2126 | 0.356 | 0.353 | 0.369 | 0.352 | 0.31 | 0.349 | 0.347 | 0.371 | 0.345 | 0.386 | 1.06 | 1.09 | 0.999 | 1.02 | 0.954 | 0.964 | 0.916 | 0.869 | 1.07 | 0.731
LK-2 | 0.641 | 0.74 | 0.822 | 0.697 | 0.567 | 0.704 | 0.773 | 0.637 | 0.487 | 0.515 | 0.369 | 0.309 | 0.472 | 0.534 | 0.361 | 0.168 | 0.163 | 0.185 | 0.185 | 0.208
NCI-H1563 |  |  |  |  |  |  |  |  |  |  |  |  |  |  |  | 0.528 | 0.558 | 0.531 | 0.54 | 0.502
